According to US20250154141A1 (University of Florida Research Foundation, Incorporated, priority 2021, published 2025):
Read-outs that look alike come from different tables or passages of the source.

Experiments:
Type in all cases: cell-based
MOLT-4 = experiment: Cell viability assay (MTS) in MOLT-4 cells; details: Homo sapiens
Procedure: (§1) Acute lymphoblastic leukemia cells (MOLT-4 and RS4; 11) were incubated with increasing concentrations of Bcl-xL degraders for 48 h. Cell viability was measured by tetrazolium-based MTS assay.

RS4; 11 = experiment: Cell viability assay (MTS) in RS4; 11 cells; details: Homo sapiens
Procedure: as §1

Bcl-xL = Bcl-xL (Homo sapiens, UniProt Q07817); experiment: Protein degradation assay in Jurkat cells (Western blot), Bcl-xL; parameters: endogenous in cells; host or cells: Jurkat cells; details: FIG. 1, 16 hours
Bcl-xL, sequence (Q07817 whole entry): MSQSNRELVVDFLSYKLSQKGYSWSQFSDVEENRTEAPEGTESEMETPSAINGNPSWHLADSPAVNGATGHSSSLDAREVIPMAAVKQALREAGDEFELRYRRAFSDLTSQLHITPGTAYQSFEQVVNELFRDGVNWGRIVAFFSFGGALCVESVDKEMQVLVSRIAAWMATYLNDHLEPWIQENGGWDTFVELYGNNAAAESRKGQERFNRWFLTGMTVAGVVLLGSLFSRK
Procedure: (§2) Jurkat cells and human platelets were incubated with increasing concentrations of test compounds for 16 h. The cells were harvested and lysed in RIPA lysis buffer supplemented with protease and phosphatase inhibitor cocktails. An equal amount of protein ([…]) was resolved on a pre-cast 4-20% SDS-PAGE gel. Proteins were subsequently transferred to NOVEX PVDF membranes by electrophoresis. The membranes were blocked in blocking buffer (5% non-fat dry milk in TBS-T), and incubated with primary antibodies (at optimized concentrations) overnight at 4° C. After three washings in TBS-T, the membranes were incubated with an appropriate FIRP-conjugated secondary antibody for 1 h at room temperature. After extensive washing for three times, the proteins of interest was detected with ECL western blotting detection reagents and recorded with autoradiography (Pierce Biotech, Rockford, IL, USA). The primary antibodies for Bcl-xL (Cat #2762), Bcl-2 (Cat #2872), Mcl-1 (Cat #5453) and j-actin (Cat #4970) were purchased from Cell Signaling Technology. The relative band intensity was measured using ImageJ software and normalized to β-actin.

Bcl-2 = Bcl-2 (Homo sapiens, UniProt P10415); experiment: Protein degradation assay in Jurkat cells (Western blot), Bcl-2; parameters: endogenous in cells; host or cells: Jurkat cells; details: FIG. 1, 16 hours
Bcl-2, sequence (P10415 whole entry): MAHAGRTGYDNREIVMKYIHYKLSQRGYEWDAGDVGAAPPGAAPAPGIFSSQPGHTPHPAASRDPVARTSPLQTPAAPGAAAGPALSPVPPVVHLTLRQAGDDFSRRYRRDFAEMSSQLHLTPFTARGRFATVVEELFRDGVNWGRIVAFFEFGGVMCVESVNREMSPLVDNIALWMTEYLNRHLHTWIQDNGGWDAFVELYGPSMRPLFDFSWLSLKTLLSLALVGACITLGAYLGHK
Procedure: as §2

human platelets = experiment: Platelet toxicity assay (MTS viability); details: for IC50: Homo sapiens, Platelet, 48 h, human platelets; for Platelets/MOLT-4 IC50 Fold change / PLT/MOLT-4 IC50 Fold Change: ratio of platelet IC50 to MOLT-4 IC50
Procedure: Platelet-rich plasma (PRP) was purchased from Life South Community Blood Centers (Gainesville, FL, USA). PRP was transferred into a 50 mL tube containing 5 mL of the acid citrate buffer (Cat. No. sc-214744, Santa Cruz Biotechnology). To prevent clotting, prostaglandin E1 (PGE1, Cat. No. sc-201223A, Santa Cruz Biotechnology, Dallas, TX, USA) and apyrase (Cat. No. A6237, Sigma-Aldrich, St. Louis, MO, USA) were added to final concentrations of […] and 0.2 U/mL, respectively. After gently mixing the solution, platelets were pelleted by centrifugation at 1200 g for 10 min without break. Pelleted platelets were gently washed without disturbing platelets using 2 mL of HEPES Tyrode's buffer (Cat. No. PY-921WB, Boston BioProducts, Ashland, MA, USA) containing […] PGE1 and 0.2 U/mL apyrase. After washing, pellets were gently suspended in 10 mL of HEPES Tyrode's buffer containing […] PGE1 and 0.2 U/mL apyrase. Then, the platelet number was counted using a HEMAVET 950FS hematology analyzer (Drew Scientific, Inc., Oxford, CT, USA). For viability assays, the platelet number was adjusted to 2×10^8/mL in HEPES Tyrode's buffer containing […] PGE1 and 0.2 U/mL apyrase. Each treatment was given in 2 mL of the platelet suspension in 15 mL polypropylene tubes. The tubes were placed on a rotating platform at room temperature, and the viability of platelets was measured after 48 h treatment by using the MTS reagent (Cat. No. G1111, Promega, Madison, WI, USA). The data were analyzed by the GraphPad Prism 7 software for the calculation of IC50 values.

[1] = MOLT-4, Table 2, 48 hr, MTS, read-out: Anti-Cancer Activity IC50 (48 hr) MOLT-4
[2] = RS4-11, Table 2, 48 hr, MTS, read-out: Anti-Cancer Activity IC50 (48 hr) RS4, 11
[3] = MOLT-4, Table 6, 48 h, read-out: MOLT-4 48 h IC50
[4] = RS4-11, Table 6, 48 h, read-out: RS4 48 h IC50
[5] = Table 6, 4 th time, read-out: Platelets 4 th time 48 h IC50
[6] = MOLT-4, Table 3, 48 h, mean of two independent experiments in triplicates, read-out: MOLT-4 48 h IC50
[7] = Table 3, mean of two independent experiments in triplicates, read-out: Platelets 48 h IC50
[8] = RS4-11, Table 4, 48 h, read-out: RS4 48 h IC50
[9] = Table 4, read-out: Platelets 48 h IC50
[10] = MOLT-4, Table 4, 48 h, read-out: MOLT-4 48 h IC50

Structure (SMILES)	IC50 (MOLT-4; [1]) [nM]	IC50 (RS4; 11; [2]) [nM]	degradation of BCL-XL by Western blotting analysis (Bcl-xL)	degradation of BCL-2 by Western blotting analysis (Bcl-2)	IC50 (MOLT-4; [6]) [nM]	IC50 (RS4; 11; [8]) [nM]	IC50 (human platelets; [5]) [nM]	IC50 (human platelets; [7]) [nM]	Platelets/MOLT-4 IC50 Fold change (human platelets; Table 3)	IC50 (human platelets; [9]) [nM]	other results
Cc1ncsc1-c1ccc([C@H](C)NC(=O)[C@@H]2C[C@@H](O)CN2C(=O)[C@@H](NC(=O)CN2CCC(CC(=O)N3CCN(CC4(C)CCC(c5ccc(Cl)cc5)=C(CN5CCN(c6ccc(C(=O)NS(=O)(=O)c7ccc(N[C@H](CCN8CCOCC8)CSc8ccccc8)c(S(=O)(=O)C(F)(F)F)c7)cc6)CC5)C4)CC3)CC2)C(C)(C)C)cc1 (some centres unmarked) [Compound 26]	< 20	20 to 100	exemplary degradation	exemplary degradation							
CC1(C)CCC(c2ccc(Cl)cc2)=C(CN2CCN(c3ccc(C(=O)NS(=O)(=O)c4ccc(N[C@H](CCN5CCOCC5)CSc5ccccc5)c(S(=O)(=O)C(F)(F)F)c4)cc3)CC2)C1 [ABT-263, navitoclax, reference compound]					220	38	223	312	1.4	260	Platelets/MOLT-4 IC50 Fold change (human platelets; Table 6): 1
Cc1ncsc1-c1ccc([C@H](C)NC(=O)[C@@H]2C[C@@H](O)CN2C(=O)[C@@H](NC(=O)CCCCCCC(=O)N2CCN(CC3(C)CCC(c4ccc(Cl)cc4)=C(CN4CCN(c5ccc(C(=O)NS(=O)(=O)c6ccc(N[C@H](CCN7CCCCC7)CSc7ccccc7)c([N+](=O)[O-])c6)cc5)CC4)C3)CC2)C(C)(C)C)cc1 (stereo partly drawn) [Compound 39, (2S,4R)-1-((2S)-2-(8-(4-((4′-chloro-4-methyl-6-((4-(4-(((3-nitro-4-(((R)-1-(phenylthio)-4-(piperidin-1-yl)butan-2-yl)amino)phenyl)sulfonyl)carbamoyl)phenyl)piperazin-1-yl)methyl)-2,3,4,5-tetrahydro-[1,1′-biphenyl]-4-yl)methyl)piperazin-1-yl)-8-oxooctanamido)-3,3-dimethylbutanoyl)-4-hydroxy-N—((S)-1-(4-(4-methylthiazol-5-yl)phenyl)ethyl)pyrrolidine-2-carboxamide]	< 20	< 20			14.3			4570	319		IC50 (RS4; 11; RS4-11, Table 5, 48 h, read-out: RS4 48 h IC50): 8.4 nM; IC50 (human platelets; Table 5, read-out: Platelets 48 h IC50): 4570 nM
Cc1ncsc1-c1ccc([C@H](C)NC(=O)[C@@H]2C[C@@H](O)CN2C(=O)[C@@H](NC(=O)CN2[C@@H]3CC[C@H]2CN(CC(=O)N2CCN(CC4(C)CCC(c5ccc(Cl)cc5)=C(CN5CCN(c6ccc(C(=O)NS(=O)(=O)c7ccc(N[C@H](CCN8CCOCC8)CSc8ccccc8)c(S(=O)(=O)C(F)(F)F)c7)cc6)CC5)C4)CC2)C3)C(C)(C)C)cc1 (some centres unmarked) [Compound 32]			exemplary degradation	exemplary degradation							IC50 (MOLT-4; MOLT-4, 48 h, read-out: Anti-Cancer Activity IC50 (48 hr) MOLT-4): < 20 nM; IC50 (RS4; 11; RS4-11, 48 h, read-out: Anti-Cancer Activity IC50 (48 hr) RS4, 11): < 20 nM
Cc1ncsc1-c1ccc([C@H](C)NC(=O)[C@@H]2C[C@@H](O)CN2C(=O)[C@@H](NC(=O)CCCCCNC(=O)c2ccc(N3CCN(CC4(C)CCC(c5ccc(Cl)cc5)=C(CN5CCN(c6ccc(C(=O)NS(=O)(=O)c7ccc(N[C@H](CCN8CCOCC8)CSc8ccccc8)c(S(=O)(=O)C(F)(F)F)c7)cc6)CC5)C4)CC3)nc2)C(C)(C)C)cc1 (some centres unmarked) [Compound 3]	< 20	20 to 100				44.9				4900	IC50 (MOLT-4; [10]): 9.6 nM; PLT/MOLT-4 IC50 Fold Change (human platelets; Table 4): 510

Second part, led by results:

IC50 (MOLT-4; [1]) [nM]	IC50 (RS4; 11; [2]) [nM]	degradation of BCL-XL by Western blotting analysis (Bcl-xL)	degradation of BCL-2 by Western blotting analysis (Bcl-2)	IC50 (MOLT-4; [6]) [nM]	IC50 (RS4; 11; [8]) [nM]	Structure (SMILES)	IC50 (human platelets; [5]) [nM]	IC50 (human platelets; [7]) [nM]	Platelets/MOLT-4 IC50 Fold change (human platelets; Table 3)	IC50 (human platelets; [9]) [nM]	other results
< 20	< 20	exemplary degradation	exemplary degradation			Cc1ncsc1-c1ccc([C@H](C)NC(=O)[C@@H]2C[C@@H](O)CN2C(=O)[C@@H](NC(=O)CCCCCCC(=O)N2CCN(CC3(C)CCC(c4ccc(Cl)cc4)=C(CN4CCN(c5ccc(C(=O)NS(=O)(=O)c6ccc(N[C@H](CCN7C[C@H]8C[C@@H]7CO8)CSc7ccccc7)c(S(=O)(=O)C(F)(F)F)c6)cc5)CC4)C3)CC2)C(C)(C)C)cc1 (some centres unmarked) [Compound 65]	1600				IC50 (MOLT-4; [3]): 2.8 nM; IC50 (RS4; 11; [4]): 4.2 nM; Platelets/MOLT-4 IC50 Fold change (human platelets; Table 6): 711
20 to 100	< 20			38.1		Cc1ncsc1-c1ccc([C@H](C)NC(=O)[C@@H]2C[C@@H](O)CN2C(=O)[C@@H](NC(=O)CCCCCCC(=O)N2CCN(CC3(C)CCC(c4ccc(Cl)cc4)=C(CN4CCN(c5ccc(C(=O)NS(=O)(=O)c6ccc(N[C@H](CCN(C)CCO)CSc7ccccc7)c([N+](=O)[O-])c6)cc5)CC4)C3)CC2)C(C)(C)C)cc1 (stereo partly drawn) [Compound 41, (2S,4R)-1-((2S)-2-(8-(4-((4′-chloro-6-((4-(4-(((4-(((R)-4-((2-hydroxyethyl)(methyl)amino)-1-(phenylthio)butan-2-yl)amino)-3-nitrophenyl)sulfonyl)carbamoyl)phenyl)piperazin-1-yl)methyl)-4-methyl-2,3,4,5-tetrahydro-[1,1′-biphenyl]-4-yl)methyl)piperazin-1-yl)-8-oxooctanamido)-3,3-dimethylbutanoyl)-4-hydroxy-N—((S)-1-(4-(4-methylthiazol-5-yl)phenyl)ethyl)pyrrolidine-2-carboxamide]		4900	128		
					18.7	Cc1ncsc1-c1ccc([C@H](C)NC(=O)[C@@H]2C[C@@H](O)CN2C(=O)[C@@H](NC(=O)CCCCCCC(=O)N2CCN(CC3(C)CCC(c4ccc(Cl)cc4)=C(CN4CCN(c5ccc(C(=O)NS(=O)(=O)c6ccc(N[C@H](CCN7CCOCC7)CSc7ccccc7)c(S(=O)(=O)C(F)(F)F)c6)cc5)CC4)C3)CC2)C(C)(C)C)cc1 (some centres unmarked) [PP18319C8]				1640	IC50 (MOLT-4; [10]): 17.4 nM; PLT/MOLT-4 IC50 Fold Change (human platelets; Table 4): 94
< 20	< 20					Cc1ncsc1-c1ccc([C@H](C)NC(=O)[C@@H]2C[C@@H](O)CN2C(=O)[C@@H](NC(=O)CCCCCCC(=O)N2CCN(CC3(C)CCC(c4ccc(Cl)cc4)=C(CN4CCN(c5ccc(C(=O)NS(=O)(=O)c6ccc(N[C@H](CCN7C[C@@H]8C[C@H]7CO8)CSc7ccccc7)c(S(=O)(=O)C(F)(F)F)c6)cc5)CC4)C3)CC2)C(C)(C)C)cc1 (some centres unmarked) [compound 64]	884				IC50 (MOLT-4; [3]): 2.9 nM; IC50 (RS4; 11; [4]): 4.7 nM
